Test results reported in ChEMBL document CHEMBL5131382, “Facile and divergent optimization of chromazonarol enabled the identification of simplified drimane meroterpenoids as novel pharmaceutical leads” (Eur J Med Chem, 2022).

Assays:
Format in all cases: functional
[1] = tested on: Sclerotinia sclerotiorum; assay: Antifungal activity against Sclerotinia sclerotiorum at 150 uM
[2] = tested on: Rhizoctonia solani; assay: Antifungal activity against Rhizoctonia solani at 150 uM
[3] = tested on: Phytophthora capsici; assay: Antifungal activity against Phytophthora capsici at 150 uM
[4] = tested on: Fusarium graminearum; assay: Antifungal activity against Fusarium graminearum at 150 uM
[5] = tested on: Pyricularia oryzae; assay: Antifungal activity against Pyricularia oryzae at 150 uM

Compound | inhibition at 150 µM [1] [%] | inhibition at 150 µM [2] [%] | inhibition at 150 µM [3] [%] | inhibition at 150 µM [4] [%] | inhibition at 150 µM [5] [%]
CC1(C)CCC[C@]2(C)[C@H]3Cc4cc(O)ccc4O[C@]3(C)CC[C@@H]12 | < 60 | < 60 | < 60 | < 60 | < 60
CC1(C)CCC[C@]2(C)[C@H]3Cc4cc(OC(=O)c5ccccc5)ccc4O[C@]3(C)CC[C@@H]12 | < 60 | < 60 | < 60 | < 60 | < 60
COc1ccc(C(=O)Oc2ccc3c(c2)C[C@@H]2[C@@]4(C)CCCC(C)(C)[C@@H]4CC[C@@]2(C)O3)cc1 | < 60 | < 60 | < 60 | < 60 | < 60
CC1(C)CCC[C@]2(C)[C@H]3Cc4cc(OC(=O)c5ccccn5)ccc4O[C@]3(C)CC[C@@H]12 | < 60 | < 60 | < 60 | < 60 | < 60
CC1(C)CCC[C@@]2(C)C1CC[C@@]1(C)Oc3ccc(-c4ccncc4)cc3C[C@@H]12 (stereo not given in full) | < 60 | < 60 | < 60 | < 60 | < 60
CC1(C)CCC[C@]2(C)[C@H]3Cc4cc(OC(=O)c5cccc(F)c5)ccc4O[C@]3(C)CC[C@@H]12 | < 60 | < 60 | < 60 | < 60 | < 60
CC1(C)CCC[C@]2(C)[C@H]3Cc4cc(Oc5cnc6ccccc6c5)ccc4O[C@]3(C)CC[C@@H]12 | < 60 | < 60 | < 60 | < 60 | < 60
CC1(C)CCC[C@]2(C)[C@H]3Cc4cc(OC(=O)c5cccnc5)ccc4O[C@]3(C)CC[C@@H]12 | < 60 | < 60 | < 60 | < 60 | < 60
C#CCOc1ccc2c(c1)C[C@@H]1[C@@]3(C)CCCC(C)(C)[C@@H]3CC[C@@]1(C)O2 | < 60 | < 60 | < 60 | < 60 | < 60
COc1ccc2c(c1)C[C@@H]1[C@@]3(C)CCCC(C)(C)[C@@H]3CC[C@@]1(C)O2 | < 60 | < 60 | < 60 | < 60 | < 60
CC1(C)CCC[C@@]2(C)C1CC[C@@]1(C)Oc3ccc(OS(=O)(=O)C(F)(F)F)cc3C[C@@H]12 (stereo not given in full) | < 60 | < 60 | < 60 | < 60 | < 60
CC1(C)CCC[C@@]2(C)C1CC[C@@]1(C)Oc3ccc(OC(=O)Nc4ccc(F)cc4)cc3C[C@@H]12 (stereo not given in full) | < 60 | < 60 | < 60 | < 60 | < 60
CC1(C)CCC[C@]2(C)[C@H]3Cc4cc(Oc5ccccn5)ccc4O[C@]3(C)CC[C@@H]12 | < 60 | < 60 | < 60 | < 60 | < 60
CC1(C)CCC[C@]2(C)[C@H]3Cc4cc(OC(=O)c5ccc(F)cc5)ccc4O[C@]3(C)CC[C@@H]12 | < 60 | < 60 | < 60 | < 60 | < 60
CC1(C)CCC[C@@]2(C)C1CC[C@@]1(C)Oc3ccc(-c4cccnc4)cc3C[C@@H]12 (stereo not given in full) | < 60 | < 60 | < 60 | < 60 | < 60
COc1ccc(-c2ccc3c(c2)C[C@H]2[C@@](C)(CCC4C(C)(C)CCC[C@@]42C)O3)cc1 (stereo not given in full) | < 60 | < 60 | < 60 | < 60 | < 60
CC1(C)CCC[C@@]2(C)C1CC[C@@]1(C)Oc3ccc(O)c(Cl)c3C[C@@H]12 (stereo not given in full) | < 60 | < 60 | < 60 | < 60 | < 60
CC1(C)CCC[C@@]2(C)C1CC[C@@]1(C)Oc3ccc(-c4cnc5ccccc5c4)cc3C[C@@H]12 (stereo not given in full) | < 60 | < 60 | < 60 | < 60 | < 60
CC1(C)CCC[C@]2(C)[C@H]3Cc4c(O)cccc4O[C@]3(C)CC[C@@H]12 | 52 | 75 | 54 | 43 | 45
CC1(C)CCC[C@]2(C)[C@H]3Cc4cc(OC(=O)c5cccnc5Cl)ccc4O[C@]3(C)CC[C@@H]12 | < 60 | < 60 | < 60 | < 60 | < 60

Compound | inhibition at 150 µM [1] [%] | inhibition at 150 µM [2] [%] | inhibition at 150 µM [3] [%] | inhibition at 150 µM [4] [%] | inhibition at 150 µM [5] [%]
CC1(C)CCC[C@]2(C)[C@H]3Cc4cc(Oc5ccccc5)ccc4O[C@]3(C)CC[C@@H]12 | < 60 | < 60 | < 60 | < 60 | < 60
CC1(C)CCC[C@]2(C)[C@@H](Cc3ccc(O)c(O)c3)[C@](C)(O)CC[C@@H]12 | 61 | 49 | 72 | 38 | 50
COc1cc2c(cc1OC)O[C@]1(C)CC[C@H]3C(C)(C)CCC[C@]3(C)[C@H]1C2 | 21 | 13 | 5 | 29 | 9
CC(=O)Oc1ccc2c(c1)C[C@@H]1[C@@]3(C)CCCC(C)(C)[C@@H]3CC[C@@]1(C)O2 | < 60 | < 60 | < 60 | < 60 | < 60
CC1(C)CCC[C@@]2(C)C1CC[C@@]1(C)Oc3ccc(-c4ccsc4)cc3C[C@@H]12 (stereo not given in full) | < 60 | < 60 | < 60 | < 60 | < 60
CC(C)(C)C(=O)Oc1ccc2c(c1)C[C@@H]1[C@@]3(C)CCCC(C)(C)[C@@H]3CC[C@@]1(C)O2 | < 60 | < 60 | < 60 | < 60 | < 60
CC1(C)CCC[C@@]2(C)C1CC[C@@]1(C)Oc3ccc(-c4ccccc4)cc3C[C@@H]12 (stereo not given in full) | < 60 | < 60 | < 60 | < 60 | < 60
CC1(C)CCC[C@]2(C)[C@H]3Cc4cc(OCc5ccccc5)ccc4O[C@]3(C)CC[C@@H]12 | < 60 | < 60 | < 60 | < 60 | < 60
CC(C)=CCOc1ccc2c(c1)C[C@@H]1[C@@]3(C)CCCC(C)(C)[C@@H]3CC[C@@]1(C)O2 | < 60 | < 60 | < 60 | < 60 | < 60
COc1ccc(NC(=O)Oc2ccc3c(c2)C[C@H]2[C@@](C)(CCC4C(C)(C)CCC[C@@]42C)O3)cc1 (stereo not given in full) | < 60 | < 60 | < 60 | < 60 | < 60
CC1(C)CCC[C@]2(C)[C@H]3Cc4cc(OC(=O)c5ccc6ccccc6n5)ccc4O[C@]3(C)CC[C@@H]12 | < 60 | < 60 | < 60 | < 60 | < 60
CC1(C)CCC[C@]2(C)[C@@H](Cc3cc(O)cc(O)c3)[C@](C)(O)CC[C@@H]12 | 10 | -10 | 3 | 5 | -5
CCCOc1ccc2c(c1)C[C@@H]1[C@@]3(C)CCCC(C)(C)[C@@H]3CC[C@@]1(C)O2 | < 60 | < 60 | < 60 | < 60 | < 60
CCOc1ccc2c(c1)C[C@@H]1[C@@]3(C)CCCC(C)(C)[C@@H]3CC[C@@]1(C)O2 | < 60 | < 60 | < 60 | < 60 | < 60
CC1(C)CCC[C@]2(C)[C@@H](Cc3cccc(O)c3O)[C@](C)(O)CC[C@@H]12 | 42 | 42 | 24 | 36 | 24
CC1(C)CCC[C@]2(C)C3=CC4=CC(=O)C(=O)C=C4O[C@]3(C)CC[C@@H]12 | 37 | 15 | 18 | 44 | -2
CC1(C)CCC[C@@]2(C)C1CC[C@@]1(C)Oc3ccc(-c4ccc(F)cc4)cc3C[C@@H]12 (stereo not given in full) | < 60 | < 60 | < 60 | < 60 | < 60
C=CCOc1ccc2c(c1)C[C@@H]1[C@@]3(C)CCCC(C)(C)[C@@H]3CC[C@@]1(C)O2 | < 60 | < 60 | < 60 | < 60 | < 60
C=CC(=O)Oc1ccc2c(c1)C[C@@H]1[C@@]3(C)CCCC(C)(C)[C@@H]3CC[C@@]1(C)O2 | < 60 | < 60 | < 60 | < 60 | < 60
